Columns and labels:
fungal dermatitis = assay: double-blind, randomized, placebo and haloperidol-controlled clinical trial; assay type: in vivo; details: human, 15±2.5 mg/day vs haloperidol (15±5 mg/day), double-blind extension treatment phase
Protocol: Such effectiveness for the treatment, amelioration of fungal dermatitis was shown in the following clinical trial:
The study was a double-blind, randomized, parallel, placebo and haloperidol-controlled study of 55 human subjects. The study was conducted in 23 study centers throughout the United States and Canada. […] The acute phase lasted for 6 weeks with evaluations performed weekly followed by a double-blind extension phase of at least one year.

[1] = detection of radiolabelled compound in saliva; assay type: in vivo
Protocol: For example, in the treatment of adult humans, dosages of from about 5 to 20 mg per day may be used. A once a day dosage is normally sufficient, although divided doses may be administered. For treatment of fungal dermatitis in a human, a dose range of from about […], preferably 5 to 20 mg per day is suitable.

[2] = test system: apomorphine-induced climbing behavior and hypothermia; details: mice; cited from earlier work
[3] = test system: conditioned avoidance response; details: rats; cited from earlier work

Cc1cc2c(s1)Nc1ccccc1N=C2N1CCN(C)CC1 [2-methyl-4-(4-methyl-1-piperazinyl)-10H-thieno[2,3-b][1,5]benzodiazepine]
occurrence of fungal dermatitis versus haloperidol (fungal dermatitis): statistically significantly less frequently | detection in the saliva [1]: can be detected in the saliva | apomorphine-induced climbing behavior [2]: antagonized | apomorphine-induced hypothermia [2]: antagonized | conditioned avoidance response [3]: inhibits
